Data on 25 compounds can be found in patent US7709471B2, “Compounds” (AstraZeneca AB, priority 2006, dated 2010).

The test system of this assay is human colon tumour cell line HT29. Nature of the assay: Cellular Assay (phosphohistone H3 Ser10 mitotic marker, HT29). Type of assay: cell-based. Conditions: HT-29, 24 h, HT29 cells, read-out: IC50 (cellular assay, phosphohistone H3).

Procedure: Chromosome condensation in mitosis is accompanied by phosphorylation of histone H3 on serine 10.
After 24 hours, cells were fixed in 3.7% (v/v) formaldehyde then permeabilised and blocked for 10 minutes in 100 μl 0.5% (v/v) Triton X-100, 1% (w/v) bovine serum albumin (BSA) in phosphate buffered saline (PBS). […] The raw assay data were analysed by non-linear regression analysis and used to determine an IC50 value for each compound.

By IC50 is commonly meant the midpoint of a concentration-inhibition curve. Take `COc1cc(C(=O)NC2CCC(N3CCCC3)CC2)ccc1Nc1ncc2c(n1)N(C1CCCC1)CC(C)(C)C(=O)N2C` (stereo not shown) [Example 360, 4-[(2-cyclopentyl-4,4,6-trimethyl-5-oxo-2,6,9,11-tetrazabicyclo[5.4.0]undeca-7,9,11-trien-10-yl)amino]-3-methoxy-N-(4-pyrrolidin-1-ylcyclohexyl)benzamide]: the IC50 is under 0.3 µM.
In the case of `COc1cc(C(=O)NCCN2CCCC2)ccc1Nc1ncc2c(n1)N(C1CCCC1)CC(C)(C)C(=O)N2C` [Example 358, 4-[(2-cyclopentyl-4,4,6-trimethyl-5-oxo-2,6,9,11-tetrazabicyclo[5.4.0]undeca-7,9,11-trien-10-yl)amino]-3-methoxy-N-(2-pyrrolidin-1-ylethyl)benzamide] it was under 0.3 µM; in that of `CN1C(=O)CCN(C2CCCCC2)c2nc(Nc3cc(F)c(C(=O)NCC4(CN5CCCC5)CC4)cc3F)ncc21` [Example 413, 4-[(2-cyclohexyl-6-methyl-5-oxo-2,6,9,11-tetrazabicyclo[5.4.0]undeca-7,9,11-trien-10-yl)amino]-2,5-difluoro-N-[[1-(pyrrolidin-1-ylmethyl)cyclopropyl]methyl]benzamide], under 1 µM; in that of `CN(C)CC(C)(C)CNC(=O)c1ccc(Nc2ncc3c(n2)N(C2CCCC2)CC2(CC2)C(=O)N3C)c(Cl)c1` [Example 392, 3-chloro-4-(9′-cyclopentyl-5′-methyl-6′-oxo-5′,6′,8′,9′-tetrahydrospiro[cyclopropane-1,7′-pyrimido[5,4-b][1,4]diazepine]-2′-ylamino)-N-(3-dimethylamino-2,2-dimethyl-propyl)benzamide], under 0.3 µM.
For the compound `CCN1CCC(NC(=O)c2cc(Cl)c(Nc3ncc4c(n3)N(C(C)C)CC(C)(C)C(=O)N4C)cc2F)CC1` [Example 290, 5-chloro-N-(1-ethyl-4-piperidyl)-2-fluoro-4-[(4,4,6-trimethyl-5-oxo-2-propan-2-yl-2,6,9,11-tetrazabicyclo[5.4.0]undeca-7,9,11-trien-10-yl)amino]benzamide], the IC50 was under 1 µM.
On to `COc1cc(C(=O)NCCN2CCCC2)c(F)cc1Nc1ncc2c(n1)N(C1CCCC1)CCC(=O)N2C` [Example 333, 4-[(2-cyclopentyl-6-methyl-5-oxo-2,6,9,11-tetrazabicyclo[5.4.0]undeca-7,9,11-trien-10-yl)amino]-2-fluoro-5-methoxy-N-(2-pyrrolidin-1-ylethyl)benzamide], for which the half-inhibitory concentration (IC50) was under 0.3 µM.
For `CN1CCC(NC(=O)c2ccc(Nc3ncc4c(n3)N(C3CCCC3)CC3(CC3)C(=O)N4C)c3c2OCO3)CC1` [Example 408, 7-(9′-cyclopentyl-5′-methyl-6′-oxo-5′,6′,8′,9′-tetrahydrospiro[cyclopropane-1,7′-pyrimido[5,4-b][1,4]diazepine]-2′-ylamino)-N-(1-methyl-4-piperidyl)benzo[1,3]dioxole-4-carboxamide], the IC50 is under 0.3 µM.
In the case of `COc1cc(C(=O)NCC(C)(C)CN2CCCC2)ccc1Nc1ncc2c(n1)N(C1CCCC1)CC1(CC1)C(=O)N2C` [Example 401, 4-(9′-cyclopentyl-5′-methyl-6′-oxo-5′,6′,8′,9′-tetrahydrospiro[cyclopropane-1,7′-pyrimido[5,4-b][1,4]diazepine]-2′-ylamino)-N-(2,2-dimethyl-3-pyrrolidin-1-yl-propyl)-3-methoxy-benzamide] it was under 0.3 µM; in that of `COc1cc(C(=O)NCCCN(C)C)ccc1Nc1ncc2c(n1)N(C1CCCCC1)CCC(=O)N2C` [Example 424, 4-[(2-cyclohexyl-6-methyl-5-oxo-2,6,9,11-tetrazabicyclo[5.4.0]undeca-7,9,11-trien-10-yl)amino]-N-(3-dimethylaminopropyl)-3-methoxy-benzamide], under 0.3 µM; in that of `CN1C(=O)CCN(C2CCCC2)c2nc(Nc3cc(F)c(C(=O)NCCN4CCCC4)cc3F)ncc21` [Example 335, 4-[(2-cyclopentyl-6-methyl-5-oxo-2,6,9,11-tetrazabicyclo[5.4.0]undeca-7,9,11-trien-10-yl)amino]-2,5-difluoro-N-(2-pyrrolidin-1-ylethyl)benzamide], under 0.3 µM.
Take `CCN1CCC(NC(=O)c2cc(OC)c(Nc3ncc4c(n3)N(C3CCCC3)CC3(CC3)C(=O)N4C)cc2F)CC1` [Example 407, 4-(9′-cyclopentyl-5′-methyl-6′-oxo-5′,6′,8′,9′-tetrahydrospiro[cyclopropane-1,7′-pyrimido[5,4-b][1,4]diazepine]-2′-ylamino)-N-(1-ethyl-4-piperidyl)-2-fluoro-5-methoxy-benzamide]: the IC50 was under 0.3 µM.
In the case of `COc1cc(C(=O)NC2CCNCC2)ccc1Nc1ncc2c(n1)N(C1CCCC1)CC(C)(C)C(=O)N2C` [Example 349, 4-[(2-cyclopentyl-4,4,6-trimethyl-5-oxo-2,6,9,11-tetrazabicyclo[5.4.0]undeca-7,9,11-trien-10-yl)amino]-3-methoxy-N-(4-piperidyl)benzamide] it was under 0.3 µM.
Consider `CCN1CCC(NC(=O)c2ccc(Nc3ncc4c(n3)N(C3CCCC3)CC3(CC3)C(=O)N4C)c(F)c2)CC1` [Example 406, 4-(9′-cyclopentyl-5′-methyl-6′-oxo-5′,6′,8′,9′-tetrahydrospiro[cyclopropane-1,7′-pyrimido[5,4-b][1,4]diazepine]-2′-ylamino)-N-(1-ethyl-4-piperidyl)-3-fluoro-benzamide], for which the IC50 is under 0.3 µM.
Regarding `COc1cc(C(=O)NCCCN(C)C)ccc1Nc1ncc2c(n1)N(C1CCCC1)CC(C)(C)C(=O)N2C` [Example 357, 4-[(2-cyclopentyl-4,4,6-trimethyl-5-oxo-2,6,9,11-tetrazabicyclo[5.4.0]undeca-7,9,11-trien-10-yl)amino]-N-(3-dimethylaminopropyl)-3-methoxy-benzamide], the IC50 is under 0.3 µM.
In the case of `CCN1CCC(NC(=O)c2cc(Cl)c(Nc3ncc4c(n3)N(C(C)C)CC3(CC3)C(=O)N4C)cc2F)CC1` [Example 311, 5-chloro-N-(1-ethylpiperidin-4-yl)-2-fluoro-4-(9′-isopropyl-5′-methyl-6′-oxo-5′,6′,8′,9′-tetrahydrospiro[cyclopropane-1,7′-pyrimido[5,4-b][1,4]diazepine]-2′-ylamino)benzamide] it was under 1 µM; in that of `COc1cc(C(=O)N[C@@H]2CCN(C)C2)c(F)cc1Nc1ncc2c(n1)N(C1CCCCC1)CC1(CC1)C(=O)N2C` [Example 438, 4-(9′-cyclohexyl-5′-methyl-6′-oxo-5′,6′,8′,9′-tetrahydrospiro[cyclopropane-1,7′-pyrimido[5,4-b][1,4]diazepine]-2′-ylamino)-2-fluoro-5-methoxy-N-[(3R)-1-methylpyrrolidin-3-yl]benzamide], under 0.3 µM.
Consider `CCN1CCC(NC(=O)c2ccc(Nc3ncc4c(n3)N(C(C)C)CC(C)(C)C(=O)N4C)c(OC)c2)CC1` [Example 300, N-(1-ethyl-4-piperidyl)-3-methoxy-4-[(4,4,6-trimethyl-5-oxo-2-propan-2-yl-2,6,9,11-tetrazabicyclo[5.4.0]undeca-7,9,11-trien-10-yl)amino]benzamide], for which the IC50 is under 0.3 µM.
In the case of `COc1cc(C(=O)N[C@@H]2CCN(C)C2)ccc1Nc1ncc2c(n1)N(C1CCCCC1)CCC(=O)N2C` [Example 421, 4-[(2-cyclohexyl-6-methyl-5-oxo-2,6,9,11-tetrazabicyclo[5.4.0]undeca-7,9,11-trien-10-yl)amino]-3-methoxy-N-[(3R)-1-methylpyrrolidin-3-yl]benzamide] it was under 0.3 µM.
In the case of `CN1CC[C@@H](NC(=O)c2cc(F)c(Nc3ncc4c(n3)N(C3CCCCC3)CCC(=O)N4C)cc2F)C1` [Example 414, 4-[(2-cyclohexyl-6-methyl-5-oxo-2,6,9,11-tetrazabicyclo[5.4.0]undeca-7,9,11-trien-10-yl)amino]-2,5-difluoro-N-[(3R)-1-methylpyrrolidin-3-yl]benzamide] it was under 0.3 µM; in that of `CCOc1cc(C(=O)N[C@@H]2CCN(C)C2)c(F)cc1Nc1ncc2c(n1)N(C(C)C)CC(C)(C)C(=O)N2C` [Example 297, 5-ethoxy-2-fluoro-N-[(3R)-1-methylpyrrolidin-3-yl]-4-[(4,4,6-trimethyl-5-oxo-2-propan-2-yl-2,6,9,11-tetrazabicyclo[5.4.0]undeca-7,9,11-trien-10-yl)amino]benzamide], under 30 µM.
In the case of `CN1C(=O)C2(CC2)CN(C2CCCC2)c2nc(Nc3ccc(C(=O)NCCN4CCCC4)cc3Cl)ncc21` [Example 391, 3-chloro-4-(9′-cyclopentyl-5′-methyl-6′-oxo-5′,6′,8′,9′-tetrahydrospiro[cyclopropane-1,7′-pyrimido[5,4-b][1,4]diazepine]-2′-ylamino)-N-(2-pyrrolidin-1-ylethyl)benzamide], the IC50 is under 0.3 µM.
Consider `COc1cc(C(=O)NC2C[C@H]3CCC[C@@H](C2)N3C)ccc1Nc1ncc2c(n1)N(C1CCCCC1)CCC(=O)N2C` (stereo partly drawn) [Example 418, 4-[(2-cyclohexyl-6-methyl-5-oxo-2,6,9,11-tetrazabicyclo[5.4.0]undeca-7,9,11-trien-10-yl)amino]-3-methoxy-N-[(1R,5S)-9-methyl-9-azabicyclo[3.3.1]non-7-yl]benzamide], for which the half-inhibitory concentration (IC50) was under 0.3 µM.
In the case of `CC(C)N1CC(C)(C)C(=O)N(C)c2cnc(Nc3cc(F)c(C(=O)NC4CCN(C)CC4)cc3Cl)nc21` [Example 289, 5-chloro-2-fluoro-N-(1-methyl-4-piperidyl)-4-[(4,4,6-trimethyl-5-oxo-2-propan-2-yl-2,6,9,11-tetrazabicyclo[5.4.0]undeca-7,9,11-trien-10-yl)amino]benzamide] it was under 1 µM; in that of `CN1C(=O)C(C)(C)CN(C2CCCC2)c2nc(Nc3ccc(C(=O)NCC(C)(C)CN4CCCC4)cc3Cl)ncc21` [Example 367, 3-chloro-4-[(2-cyclopentyl-4,4,6-trimethyl-5-oxo-2,6,9,11-tetrazabicyclo[5.4.0]undeca-7,9,11-trien-10-yl)amino]-N-(2,2-dimethyl-3-pyrrolidin-1-yl-propyl)benzamide], under 0.3 µM.
On to `CN1C(=O)C2(CC2)CN(C2CCCCC2)c2nc(Nc3cc(F)c(C(=O)NC4CCC(N(C)C)CC4)cc3Cl)ncc21` (stereo not shown) [Example 437, 5-chloro-4-(9′-cyclohexyl-5′-methyl-6′-oxo-5′,6′,8′,9′-tetrahydrospiro[cyclopropane-1,7′-pyrimido[5,4-b][1,4]diazepine]-2′-ylamino)-N-(4-dimethylaminocyclohexyl)-2-fluoro-benzamide], for which the IC50 is under 0.3 µM.
